# PubChem BioAssay (NCI)
#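 48-hour exposure; five concentrations; linearly interpolated endpoints. At the GI50, growth is halved. TGI denotes the concentration required for complete inhibition of growth.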
# System: HL-60(TB) leukemia
# Assay: growth of human tumour cells (NCI), 48 h
SMILES,TGI [µM],GI50 [µM]
NNC(=O)Nc1cccnc1,> 100,–
CCCCCCCCCCCOc1ccc(C(=O)C(=O)c2ccc(OCCCCCCCCCCC)c(OCCCCCCCCCCC)c2)cc1OCCCCCCCCCCC,> 100,–
COc1cc(CNc2cnc3cc(N)cc(N)c3n2)cc(OC)c1,> 100,32.9
CCCCC(=O)OCC(=O)[C@]1(O)Cc2c(O)c3c(c(O)c2[C@@H](OC2CC(NC(=O)C(F)(F)F)C(O)C(C)O2)C1)C(=O)c1c(OC)cccc1C3=O (stereo partly specified),6.41,–
O=C(O)CCc1coc2ccc(O)cc12,> 100,–
Clc1cc2nsnc2c(Cl)n1,36.2,–
N#CC1C(C#N)C2(c3ccccc3)C(c3ccccc3)=NN(c3ccccc3)CC12 (stereo unspecified),> 100,–
COc1cc(Cc2cnc(/N=C3\C(=O)N(CN4CCN(c5c(F)cc6c(=O)c(C(=O)O)cn(C7CC7)c6c5OC)CC4C)c4ccc(F)cc43)nc2N)cc(OC)c1OC (stereo unspecified),> 100,3.28
C=C(CN1CCN(c2ccc(Cl)cc2F)CC1)c1ccc(C(=O)Nc2ccccc2N)cc1,–,0.794
Cc1cccc2c(=O)cc(-c3ccccc3)[nH]c12,> 100,–
COC(CN1C(=O)c2cccc3cccc(c23)C1=O)OC,> 100,–
CCCCOC(=O)C1OC(O[C@H]2CCC3(C)C(CCC4(C)C3CC=C3C5CC(C)(C)CCC5(C(=O)O)CC[C@]34C)C2(C)C)C(OC2OC(CO)C(O)C(O)C2O)C(OC2OC(CO)C(O)C(O)C2O)C1O (stereo partly specified),52,22.3
Cc1nc2ccccc2c(=O)n1-c1ccccc1I,> 100,–
Cc1ccc2c(=O)cc(-c3ccc(F)cc3)[nH]c2n1,34.3,–
CC(=O)NNc1nc(C)c(C(=O)NNC(=O)C(=O)Nc2ccc(Cl)cc2)s1,> 100,–
CN/N=C(/Cc1occc(=O)c1O)C(=O)Nc1ccccc1C,> 100,–
Cc1cc(I)cc(CN(C)CCCCN2CCCCC2)c1O,26.3,10.9
COc1ccc(C(=O)Cn2c(C(=O)c3ccccc3)nc(-c3ccc(OC)cc3)c2-c2ccc(OC)cc2)cc1,> 100,> 100
O=C1c2ccccc2C2C1N2C(=O)C(F)(F)F (stereo unspecified),91.5,–
CC1=C(C(=O)NCc2ccccc2)C(/C=C/c2ccccc2)C(C(=O)NCc2ccccc2)=C(C)N1,> 100,–
N#CCCN(CCC#N)c1ccc(/C=C2\N=C(c3cc([N+](=O)[O-])ccc3Cl)OC2=O)cc1,67.3,–
CC1=C(C(=O)Nc2ccc(Cl)c(Cl)c2)C(c2cccc(Oc3ccccc3)c2)NC(=S)N1 (stereo unspecified),> 50,15.9
COc1cc(-c2nn(-c3ccc(NC(=O)c4ccc(Cl)c(C(F)(F)F)c4)cc3)cc2-c2ccncc2)ccc1Cl,> 57.3,3.62
CN(C)CC[N+]1=Nc2cccc3cccc(c23)N1,> 60.1,–
COc1ccc2c(C3=C(c4cn(C)c5ccccc45)C(=O)NC3=O)cn(C)c2c1,–,0.0998
Cc1cc(C)nc(NS(=O)(=O)c2ccc(NC(=O)c3ccc(Cl)c4c(Nc5ccc(S(=O)(=O)Nc6nc(C)cc(C)n6)cc5)c5ccccc5nc34)cc2)n1,11,–
N#CC(c1ccc(Cl)cc1)c1cccc(C(C#N)c2ccc(Cl)cc2)n1 (stereo unspecified),> 100,–
O=C1/C(=C/c2ccccc2)CN(C(=O)C(Cl)(Cl)Cl)C/C1=C\c1ccccc1,0.524,–
Cc1ccc(NC2=C(Cl)C(=O)N(Cc3ccccc3)C2=O)cc1O,> 100,6.45

# System: A549 NSCLC
# Assay: growth of human tumour cells (NCI), 48 h
SMILES,TGI [µM],GI50 [µM]
CCN(CCO)CC1CCCC2CCCCC21 (stereo unspecified),> 100,–
NNC(=O)Nc1cccnc1,> 100,–
COc1ccc(-c2nc3sccn3c2/C(N)=N/C(=N)N)cc1OC,> 100,> 100
CCCCCCCCCCCOc1ccc(C(=O)C(=O)c2ccc(OCCCCCCCCCCC)c(OCCCCCCCCCCC)c2)cc1OCCCCCCCCCCC,> 100,–
COc1cc(CNc2cnc3cc(N)cc(N)c3n2)cc(OC)c1,> 100,33
CCCCC(=O)OCC(=O)[C@]1(O)Cc2c(O)c3c(c(O)c2[C@@H](OC2CC(NC(=O)C(F)(F)F)C(O)C(C)O2)C1)C(=O)c1c(OC)cccc1C3=O (stereo partly specified),3.83,–
O=C(O)CCc1coc2ccc(O)cc12,> 100,–
Clc1cc2nsnc2c(Cl)n1,> 100,–
N#CC1C(C#N)C2(c3ccccc3)C(c3ccccc3)=NN(c3ccccc3)CC12 (stereo unspecified),> 100,–
COc1cc(Cc2cnc(/N=C3\C(=O)N(CN4CCN(c5c(F)cc6c(=O)c(C(=O)O)cn(C7CC7)c6c5OC)CC4C)c4ccc(F)cc43)nc2N)cc(OC)c1OC (stereo unspecified),> 100,27
C=C(CN1CCN(c2ccc(Cl)cc2F)CC1)c1ccc(C(=O)Nc2ccccc2N)cc1,> 30.5,2.56
Cc1cccc2c(=O)cc(-c3ccccc3)[nH]c12,> 100,–
COC(CN1C(=O)c2cccc3cccc(c23)C1=O)OC,> 100,–
O=C(Nc1ccccc1)NS(=O)(=O)c1ccc(-n2nc3c(c2-c2cccs2)Cc2ccccc2-3)cc1,> 100,20.8
CCCCOC(=O)C1OC(O[C@H]2CCC3(C)C(CCC4(C)C3CC=C3C5CC(C)(C)CCC5(C(=O)O)CC[C@]34C)C2(C)C)C(OC2OC(CO)C(O)C(O)C2O)C(OC2OC(CO)C(O)C(O)C2O)C1O (stereo partly specified),> 100,34.1
Cc1nc2ccccc2c(=O)n1-c1ccccc1I,> 100,–
Cc1ccc2c(=O)cc(-c3ccc(F)cc3)[nH]c2n1,> 100,–
CC(=O)NNc1nc(C)c(C(=O)NNC(=O)C(=O)Nc2ccc(Cl)cc2)s1,> 100,–

SMILES,TGI [µM],GI50 [µM]
CC1(C)CCc2c(c3c(c4c(=O)c(O)c(-c5ccc(O)cc5)oc24)OC(C)(C)CC3)O1,> 100,> 100
CN/N=C(/Cc1occc(=O)c1O)C(=O)Nc1ccccc1C,> 100,–
Cc1cc(I)cc(CN(C)CCCCN2CCCCC2)c1O,96.8,27.4
O=C(N/C(=C\c1ccc(/C=C(\NC(=O)c2ccccc2)c2nc3cc([N+](=O)[O-])ccc3[nH]2)cc1)c1nc2cc([N+](=O)[O-])ccc2[nH]1)c1ccccc1,> 100,–
COc1ccc(C(=O)Cn2c(C(=O)c3ccccc3)nc(-c3ccc(OC)cc3)c2-c2ccc(OC)cc2)cc1,> 100,> 100
O=C1c2ccccc2C2C1N2C(=O)C(F)(F)F (stereo unspecified),> 100,–
CC1=C(C(=O)NCc2ccccc2)C(/C=C/c2ccccc2)C(C(=O)NCc2ccccc2)=C(C)N1,> 100,–
N#CCCN(CCC#N)c1ccc(/C=C2\N=C(c3cc([N+](=O)[O-])ccc3Cl)OC2=O)cc1,> 100,–
CC1=C(C(=O)Nc2ccc(Cl)c(Cl)c2)C(c2cccc(Oc3ccccc3)c2)NC(=S)N1 (stereo unspecified),23.7,9.51
COc1cc(-c2nn(-c3ccc(NC(=O)c4ccc(Cl)c(C(F)(F)F)c4)cc3)cc2-c2ccncc2)ccc1Cl,> 100,4.94
CN(C)CC[N+]1=Nc2cccc3cccc(c23)N1,> 100,–
COc1ccc2c(C3=C(c4cn(C)c5ccccc45)C(=O)NC3=O)cn(C)c2c1,> 25,0.135
Cc1cc(C)nc(NS(=O)(=O)c2ccc(NC(=O)c3ccc(Cl)c4c(Nc5ccc(S(=O)(=O)Nc6nc(C)cc(C)n6)cc5)c5ccccc5nc34)cc2)n1,86.1,–
N#CC(c1ccc(Cl)cc1)c1cccc(C(C#N)c2ccc(Cl)cc2)n1 (stereo unspecified),> 100,–
CCCCCN(CCCCC)CCCNc1c2c(nc3ccc(Cl)cc13)CCCC2,10.8,3.29
O=C1/C(=C/c2ccccc2)CN(C(=O)C(Cl)(Cl)Cl)C/C1=C\c1ccccc1,32.4,–
Cc1ccc(NC2=C(Cl)C(=O)N(Cc3ccccc3)C2=O)cc1O,> 100,42.1

# System: HOP-62 NSCLC
# Assay: growth of human tumour cells (NCI), 48 h
SMILES,TGI [µM],GI50 [µM]
CCN(CCO)CC1CCCC2CCCCC21 (stereo unspecified),> 100,–
NNC(=O)Nc1cccnc1,> 100,–
COc1ccc(-c2nc3sccn3c2/C(N)=N/C(=N)N)cc1OC,58.3,24.6
CCCCCCCCCCCOc1ccc(C(=O)C(=O)c2ccc(OCCCCCCCCCCC)c(OCCCCCCCCCCC)c2)cc1OCCCCCCCCCCC,> 100,–
COc1cc(CNc2cnc3cc(N)cc(N)c3n2)cc(OC)c1,44.1,14.9
CCCCC(=O)OCC(=O)[C@]1(O)Cc2c(O)c3c(c(O)c2[C@@H](OC2CC(NC(=O)C(F)(F)F)C(O)C(C)O2)C1)C(=O)c1c(OC)cccc1C3=O (stereo partly specified),0.988,–
O=C(O)CCc1coc2ccc(O)cc12,> 100,–
Clc1cc2nsnc2c(Cl)n1,> 100,–
COc1cc(Cc2cnc(/N=C3\C(=O)N(CN4CCN(c5c(F)cc6c(=O)c(C(=O)O)cn(C7CC7)c6c5OC)CC4C)c4ccc(F)cc43)nc2N)cc(OC)c1OC (stereo unspecified),27.4,14.4
C=C(CN1CCN(c2ccc(Cl)cc2F)CC1)c1ccc(C(=O)Nc2ccccc2N)cc1,27.8,3.42
Cc1cccc2c(=O)cc(-c3ccccc3)[nH]c12,42.6,–
COC(CN1C(=O)c2cccc3cccc(c23)C1=O)OC,> 100,–
O=C(Nc1ccccc1)NS(=O)(=O)c1ccc(-n2nc3c(c2-c2cccs2)Cc2ccccc2-3)cc1,47,18.1
CCCCOC(=O)C1OC(O[C@H]2CCC3(C)C(CCC4(C)C3CC=C3C5CC(C)(C)CCC5(C(=O)O)CC[C@]34C)C2(C)C)C(OC2OC(CO)C(O)C(O)C2O)C(OC2OC(CO)C(O)C(O)C2O)C1O (stereo partly specified),35.6,19.4
